Source: article PMC12956279 (2026)

How the values were obtained:
Assay in all cases: fluorescence titration (light-up), quadratic fit
Details in all cases: 100 mM KCl, 1 mM MgCl2; 40 mM HEPES pH 7.4 (7.5 in Results), room temperature; 1 µM dye, DNA varied
[1] = test system: FLE (FLE-v4) (DNA, aptamer) TCCTTCGCACAGCACACCTGCCGTATAGCTCTGAATCAAGGATTTTAGGGAGGCGATAACGTGCTCAAGGTGTCTTAGTAGGGATGATGCGGCAGTGGGCTTCGCAGAACAGTGTTTATTCTGCGAGGGGACTAAGACTCCTTCAGCAAGTTAAGCTCCTCCTGCC
[2] = test system: 8LE-v4 (DNA, aptamer) TCCTTCGCACAGCACACCTGCCGTATAGCTCTGAATCAAGGATTTTAGGGAGGCGATGTCTTAGTAGGGATGATGCGGCAGTGGGCTTCGCAGAACAGTGTTTATTCTGCGAGGGGACTAAGACTCCTCCTGCC
[3] = test system: 4LE-v4 (DNA, aptamer) TCCTTCGCACAGCACACCTGCCGTATAGCTCTGAATCAAGGATTTTAGGGAGGCGATTAGTAGGGATGATGCGGCAGTGGGCTTCGCAGAACAGTGTTTATTCTGCGAGGGGACTATCCTCCTGCC
[4] = test system: 11LE (11LE-v4) (DNA, aptamer) TCCTTCGCACAGCACACCTGCCGTATAGCTCTGAATCAAGGATTTTAGGGAGGCGATGGTGTCTTAGTAGGGATGATGCGGCAGTGGGCTTCGCAGAACAGTGTTTATTCTGCGAGGGGACTAAGACTCCTCCTCCTGCC

With `CC1=N/C(=C\c2cc(F)c(O)c(F)c2)C(=O)N1CC(F)(F)F` the KD [1] was 0.07 (0.01, 0.16, 95% CI) µM, the KD [2] was 0.04 (0.01, 0.12, 95% CI) µM and the KD [3] was 6 (4.93, 7.18, 95% CI) µM. For the same compound, the KD [4] was 0.01 (0.01, 0.07, 95% CI) µM.
